Assay results from patent publication US6867305B2, “Synthesis of epothilones, intermediates thereto and analogues thereof” (Sloan-Kettering Institute for Cancer Research, priority 1996, dated 2005).
Values joined by “and” are separate entries in the source; they are usually repeats but may differ in a detail not shown here. Identical values can stand only once. “Also recorded” adds a separate entry of the source. Like-named read-outs stand apart in the source and are kept apart here.

Assays:
[1] = test system: CCRF-CEM/VBL100 (vinblastine-resistant subline); test: Tumor cell growth inhibition in vitro (XTT, 72 h); type: cell-based, human; conditions: for cross-resistance (fold of resistance vs parent cell line): CCRF-CEM/VBL100 vs CCRF-CEM
Experimental: (§1) The fresh medium containing each drug was replenished every 7-14 days. […] In each case ,the drug-exposed cells were resuspended in fresh media for a minimum of 4 days before the experiments for the cell-growth inhibition was carried out.
(§2) The cells were cultured at an initial density of 2-5×10^4 cells per ml. They were maintained in a 5% CO2-humidified atmosphere at 37° C. in RPMI mediun 1640 (GIBCO/BRL) containing penicillin (100 units/ml), streptomycin (100 μg/ml) (GIBCO/BRL), and 5% heat-inactivated fetal bovine serum. For solid tumor cells growing in a monolayer (such as MCF-7/Adr), cytotoxicitiy of the drug was determined in 96-well microtiter plates by using the sulforhodamine B method as described by Skehan et al (23) for measuring the cellular protein content. For cells that were grown in suspension (such as CCRF-CEM and its sublines), cytotoxicitiy was measured by using the 2,-3-bis(2-methoxy-4-nitro-5-sulfophenyl)-5carboxanilide)-2H terazodium hydroxide (XTT)-microculture tetrazonium method (24) in duplicate in 96-well microtiter plates. For both methods, the absorbance of each well was measured with a microplate reader (EL-340, Bio-Tek, Burlington, Vt.). Each run entailed six or seven concentrations of the tested drugs. Dose-effect relationship data were analyzed with the median-effect plot (25) by using a previously described computer program (26).

DC-3F/ADII = test: Tumor cell growth inhibition in vitro; type: cell-based, hamster; conditions: for IC50: DC-3F/ADII; for cross-resistance (fold of resistance vs parent cell line): DC-3F/ADII vs DC-3F
Experimental: as §1, §2

[2] = test system: MCF-7/Adr mammary xenograft; test: Human tumor xenograft in nude mice; type: in vivo
[3] = test system: K562 chronic myelocytic leukemia xenograft; test: Human tumor xenograft in nude mice; type: in vivo; conditions: for Lowest Average Tumor Size (T/C) / Tumor Disappearance: Taxol 20 mg/kg, Q2Dx5, 6-hr i.v. infusion
Experimental: FIG. 34 depicts tumor size in nude mice bearing human leukemia […] tumor following 6 mg/kg C-15-Aza-EpoB, Q2D×6 and 30 mg/kg dEpoF, Q2ED×6 (i.v. infusion […].). K562 tumor cells (1×10^7 in 0.2 mL) were inoculated to nude mice on day 0. Mice were treated with 6 mg/kg aza-EpoB, 6 h-i.v. infusion on days 20, 22, 24, 26, 28 and 30 (Δ, n=3). The same group of mice were then treated with 30 mg/kg dEpoF, 6 h-i.v. infusion on days 42, 44, 46, 48, 52, and 54 (Δ, n=3). […] The control mice (∘, n=3) received vehicle only.
K562 tumor cells (1×10^7, in 0.2 ml/mouse) were implanted s.c. on day 0. […] The control mice (∘, n=4) received vehicle, Cremophor-ethanol (1:1), only. The vertical bars indicate mean tumor size in mm^3±S.E.
Depending on the tumor type, treatment started on day 10 to day 21 when subcutaneous tumor size reached 35-200 mm^3, except otherwise indicated. Tumor size and body-weight were recorded every other day (Q2D) and, for humane reasons, the animals were sacrificed when tumor size reached ≧10% of body-weight. Each group, including untreated control, consisted of 3-5 animals unless otherwise indicated.
Athymic nude mice bearing the nu/nu gene were used for all human tumor xenografts. Outbred, Swiss-background mice were obtained from Charles River Laboratories. Male mice 8 weeks or older weighing 22 g and up were used for most experiments. The drug was administered via the tail vein for 6 hr.-i.v. infusion. Each individual mouse was confined in a perforated Falcon polypropylene tube restrainer for drug administration. Tumor volume was assessed by measuring length×width×height (or width) using a caliper. The programmable Harvard PHD2000 syringe pump (Harvard Apparatus) with multi-track was used for i.v. infusion. […] All animal studies were conducted in accordance with the guidelines of the National Institutes of Health “Guide for the Care and Use of Animals” and the protocol approved by the Memorial Sloan-Kettering Cancer Center's Institutional Animal Care and Use Committee. In keeping with the policy of this committee for the humane treatment of tumor-bearing animals, mice were euthanized when tumors reached ≧10% of their total body weight.
Human tumor cells (5×10^6) or tumor tissue (30-50 mg) were implanted s.c. flank in nu/nu mice (Charles River Laboratories, Wilmington, Mass.). When tumor grew to a specified size, treatment was started by every-other day×5 with 6 hr i.v.-infusion, unless otherwise indicated. Tumor volume was measured with calipers in three dimensions (length×width×height or width). Body-weight changes and lethality were monitored every other day.

[4] = test system: CCRF-CEM/Taxol (paclitaxel-resistant subline); test: Tumor cell growth inhibition in vitro (XTT, 72 h); type: cell-based, human; conditions: for cross-resistance (fold of resistance vs parent cell line): CCRF-CEM/Taxol vs CCRF-CEM; for IC50: Homo sapiens, CCRF-CEM, 72 h
Experimental: as §1, §2

[5] = test system: CCRF-CEM/VM1 (teniposide-resistant subline); test: Tumor cell growth inhibition in vitro (XTT, 72 h); type: cell-based, human; conditions: for cross-resistance (fold of resistance vs parent cell line): CCRF-CEM/VM1 vs CCRF-CEM; for IC50: Homo sapiens
Experimental: as §1, §2

[6] = test system: DC-3F hamster lung fibroblasts; test: Tumor cell growth inhibition in vitro; type: cell-based
Experimental: as §1, §2

UL-3-B/Taxol = test: cells; conditions: Homo sapiens
[7] = dEpoB 30 mg/kg, Taxol 24 mg/kg, Q2Dx5, 6-hr i.v. infusion
[8] = K562, i.v. infusion (dEpoF vs 15-azaEpoB)

Row | SMILES | IC50 (DC-3F/ADII) [nM] | Tumor Disappearance [2, 7] | Lowest Average Tumor Size (T/C) ([3]; K562, dEpoB 30 mg/kg) | Tumor Disappearance ([3]; K562, dEpoB 30 mg/kg) | cross-resistance (fold of resistance vs parent cell line) [4] | cross-resistance (fold of resistance vs parent cell line) [1] [x] | cross-resistance (fold of resistance vs parent cell line) [5] [x] | Therapeutic Effect Rank Order [3, 8] | IC50 (UL-3-B/Taxol) [nM] | IC50 [4] [nM] | IC50 ([1]; Homo sapiens, CCRF-CEM, 72 h) [nM] | IC50 ([5]; CCRF-CEM, 72 h) [nM] | further results
1 | CC(=O)O[C@H]1C(=O)[C@@]2(C)[C@H]([C@H](OC(=O)c3ccccc3)[C@]3(O)C[C@H](OC(=O)[C@H](O)[C@@H](NC(=O)c4ccccc4)c4ccccc4)C(C)=C1C3(C)C)[C@]1(OC(C)=O)CO[C@@H]1C[C@@H]2O [Taxol, paclitaxel, reference compound] | 20200 | 0/4 | 0.18 | 0/6 | – | – | – | – | – | – | – | – | IC50 ([1]; CCRF-CEM/VBL100, 72 h): 5170 nM; IC50 (DC-3F/ADII; listed as Paclitaxel): 583 nM
2 | C/C(=C\c1csc(C)n1)C1C[C@@H]2O[C@]2(C)CCC[C@H](C)[C@H](O)[C@@H](C)C(=O)C(C)(C)C(O)CC(=O)N1 (stereo partly shown) [aza-EpoB, aza-epothilone B] | – | – | – | – | 81.4 x | 1423 | 18.6 | dEpoF>>>15-azaEpoB | 15 | – | – | – | IC50 ([4]; read-out: IC50): 171 nM; IC50 ([1]; Homo sapiens, CCRF-CEM/VBL100, 72 h, read-out: IC50): 2990 nM; cross-resistance (fold of resistance vs parent cell line) ([5]; listed as 15-aza-EpoB): 118.6 x; IC50 ([5]; CCRF-CEM/VM1, 72 h, read-out: IC50): 39 nM; IC50 ([6]; Mesocricetus auratus, DC3F, read-out: IC50): 8.7 nM; cross-resistance (fold of resistance vs parent cell line) (DC-3F/ADII): 274 x; cross-resistance (fold of resistance vs parent cell line) (DC-3F/ADII; listed as 15-aza-EpoB): 33.1 x; IC50 (DC-3F/ADII; listed as 15-aza-EpoB, read-out: IC50): 288 nM; IC50 (DC-3F/ADII; read-out: IC50): 2380 nM; therapeutic effect on tumor growth ([3]; K562, aza-EpoB 6 mg/kg Q2D×6, 6 h-i.v. infusion (FIG. 34)): inhibited tumor growth but did not lead to a reduction in the size of the tumor; therapeutic effect on tumor growth ([3]; K562, aza-EpoB 6 mg/kg Q2D×6, 6 h-i.v. infusion (FIG. 34), listed as azaEpoB): strongly suppressed tumor growth but did not shrink the tumor
3 | C/C1=C/C[C@@H](/C(C)=C/c2csc(CO)n2)OC(=O)C[C@H](O)C(C)(C)C(=O)[C@H](C)[C@@H](O)[C@@H](C)CCC1 [dEpoF, 12,13-Desoxyepothilone F] | 18.1 | – | – | – | 2.0 x | 17.4 | 1.8 | dEpoF>>>15-azaEpoB | 6.7 | 5.3 | 47 | 4.9 | IC50 (DC-3F/ADII; Mesocricetus auratus, DC3F): 22.3 nM; tumor free mice on day 76 ([3]; K562, aza-EpoB 6 mg/kg then dEpoF 30 mg/kg, n=3): all three mice were tumor free; therapeutic effect on tumor growth ([3]; K562, dEpoF 30 mg/kg Q2D×6 in the same mice after aza-EpoB, tumor near 500 mm^3 (FIG. 34)): readily induced reduction in the size of the tumor to the point of remission; also recorded: The tumor mass eventually disappeared three weeks later
4 | C/C1=C/C[C@@H](/C(C)=C/c2csc(C)n2)OC(=O)C[C@H](O)C(C)(C)C(=O)[C@H](C)[C@@H](O)[C@@H](C)CCC1 [dEpoB, 12,13-desoxyepothilone B] | – | 0/3 | 0 | 5/5 | 1.7 x and 1.2 x | – | 1.5 | – | 7 | 16.2 | 17 | 14 | IC50 [6]: 2.5 nM; IC50 ([6]; Mesocricetus auratus, DC3F): 1.9 nM; Lowest Average Tumor Size (T/C) [2, 7]: 0.11; Therapeutic Effect Rank Order ([2]; i.p., ref 19 (Table 5)): dEpoB>Camptothecin>Adriamycin>Taxol; Therapeutic Effect Rank Order ([2]; i.v. infusion): dEpoB>>VP-16, Taxol>VBL, Adriamycin; Therapeutic Effect Rank Order ([3]; K562, i.v. infusion, FIG. 3 & 4): dEpoB>>>VBL> Taxol> Adriamycin; therapeutic effect of single course ([3]; K562, single course Q2D×3, dEpoB 30 mg/kg (FIG. 37)): disappearance of K562 xenografts for four weeks; therapeutic effect ([3]; K562, dEpoB 30 mg/kg, Taxol 20 mg/kg 6 hr i.v. infusion, Adriamycin 3 mg/kg, vinblastine 2.5 mg/kg i.v., every other day from day 20 (FIG. 36)): Complete remission; tumor size after treatment ([3]; K562 tumor as large as 880 mm^3 after paclitaxel, then dEpoB 30 mg/kg (Q2D×3)×3): less than 20 mm^3
